For one assay, the target named is T1, MKK4(m) (Mus musculus, UniProt P47809).
T1 construct: purchased Merck-Millipore (KinaseProfiler panel service)
The experiment in a line: KinaseProfiler panel: MKK4(m). Conditions: residual activity, 5 μM inhibitor, Km ATP. Type of assay: biochemical. The procedure:
(§1) Kinase selectivity was performed on a panel of 58 recombinant protein kinases. The assays were performed in the presence of 5 μM inhibitor at the respective Km ATP for each kinase, using the KinaseProfiler panel service (Merck-Millipore). Residual activity measured in the presence of […] inhibitor is expressed as the percent of activity determined in the absence of inhibitor.

The target in another assay is T2, cKit(V560G)(h) (Homo sapiens, UniProt P10721, V560G).
T2 construct: purchased Merck-Millipore (KinaseProfiler panel service)
The experiment in a line: KinaseProfiler panel: cKit(V560G)(h). Type of assay: biochemical. To be noted: residual activity, 5 μM inhibitor, Km ATP. The procedure: as §1

The target of another assay is LIMK1(h) (Homo sapiens, UniProt P53667). The experiment in a line: KinaseProfiler panel: LIMK1(h). Conditions: residual activity, 5 μM inhibitor, Km ATP. Set-up: purchased Merck-Millipore (KinaseProfiler panel service). The assay is classed as biochemical. The procedure: as §1
The next assay has as its target T3, A-Raf(h) (Homo sapiens, UniProt P10398).
T3 construct: purchased Merck-Millipore (KinaseProfiler panel service)
The experiment in a line: KinaseProfiler panel: A-Raf(h). The assay is classed as biochemical. To be noted: residual activity, 5 μM inhibitor, Km ATP. The procedure: as §1

A further assay addresses T4, MRCKα(h) (Homo sapiens, UniProt Q5VT25).
T4 construct: purchased Merck-Millipore (KinaseProfiler panel service)
The experiment in a line: KinaseProfiler panel: MRCKα(h). Type of assay: biochemical. To be noted: residual activity, 5 μM inhibitor, Km ATP. As for the experimental part: as §1

The target of another assay is T5, PKCα(h) (Homo sapiens, UniProt P17252).
T5 construct: purchased Merck-Millipore (KinaseProfiler panel service)
The assay is described as follows: KinaseProfiler panel: PKCα(h). The assay is classed as biochemical. To be noted: residual activity, 5 μM inhibitor, Km ATP. As for the experimental part: as §1

In another assay the target is T6, LKB1(h) (Homo sapiens, UniProt Q15831).
T6 construct: purchased Merck-Millipore (KinaseProfiler panel service)
The experiment in a line: KinaseProfiler panel: LKB1(h). Conditions: residual activity, 5 μM inhibitor, Km ATP. Type of assay: biochemical. As for the experimental part: as §1

The next assay concerns the target T7, CaMKIIδ(h) (Homo sapiens, UniProt Q13557).
T7 construct: purchased Merck-Millipore (KinaseProfiler panel service)
The assay is described as follows: KinaseProfiler panel: CaMKIIδ(h). The assay is classed as biochemical. Conditions: residual activity, 5 μM inhibitor, Km ATP. The procedure: as §1

The next assay concerns the target T8, IGF-1R(h), activated (Homo sapiens, UniProt P08069).
T8 construct: purchased Merck-Millipore (KinaseProfiler panel service)
The assay is described as follows: KinaseProfiler panel: IGF-1R(h), activated. The assay is classed as biochemical. To be noted: residual activity, 5 μM inhibitor, Km ATP. As for the experimental part: as §1

For another assay, the target named is T9, TrkB(h) (Homo sapiens, UniProt Q16620).
T9 construct: purchased Merck-Millipore (KinaseProfiler panel service)
The assay is described as follows: KinaseProfiler panel: TrkB(h). The assay is classed as biochemical. To be noted: residual activity, 5 μM inhibitor, Km ATP. The procedure: as §1

The target in a further assay is T10, Aurora-B(h) (Homo sapiens, UniProt Q96GD4).
T10 construct: purchased Merck-Millipore (KinaseProfiler panel service)
The assay is described as follows: KinaseProfiler panel: Aurora-B(h). Conditions: residual activity, 5 μM inhibitor, Km ATP. Type of assay: biochemical. As for the experimental part:
as §1

The target of another assay is T11, Flt3(D835Y)(h) (Homo sapiens, UniProt P36888, D835Y).
T11 construct: purchased Merck-Millipore (KinaseProfiler panel service)
The assay is described as follows: KinaseProfiler panel: Flt3(D835Y)(h). Type of assay: biochemical. To be noted: residual activity, 5 μM inhibitor, Km ATP. As for the experimental part: as §1

The next assay has as its target T12, IKKα(h) (Homo sapiens, UniProt O15111).
T12 construct: purchased Merck-Millipore (KinaseProfiler panel service)
The assay is described as follows: KinaseProfiler panel: IKKα(h). To be noted: residual activity, 5 μM inhibitor, Km ATP. The assay is classed as biochemical. The procedure:
as §1

The next assay relates to MLCK(h). The experiment in a line: KinaseProfiler panel: MLCK(h). The assay is classed as biochemical, human. To be noted: residual activity, 5 μM inhibitor, Km ATP. The procedure:
as §1

The target in a further assay is T13, B-Raf(V599E)(h) (Homo sapiens, UniProt P15056, V600E).
T13 construct: purchased Merck-Millipore (KinaseProfiler panel service)
The experiment in a line: KinaseProfiler panel: B-Raf(V599E)(h). To be noted: residual activity, 5 μM inhibitor, Km ATP. Type of assay: biochemical. The procedure: as §1

Another assay deals with T14, FAK(h) (Homo sapiens, UniProt Q05397).
T14 construct: purchased Merck-Millipore (KinaseProfiler panel service)
The experiment in a line: KinaseProfiler panel: FAK(h). Conditions: residual activity, 5 μM inhibitor, Km ATP. Type of assay: biochemical. As for the experimental part: as §1

Assay [1] concerns the target T15, recombinant human LIMK2 fragment 1-638 (Homo sapiens, UniProt P53671).
T15 construct: recombinant human LIMK2 fragment 1-638; 6His (N); purchased Carna Biosciences 09-106
The assay is described as follows: LIMK2 kinase assay (Compound 1), anti-phospho-Ser3-cofilin detection. The assay is classed as biochemical. Conditions: 360 μM ATP; GST-cofilin 1 substrate; chemiluminescence detection.
Experimental: Compounds were tested in a LIMK2 assay performed in a final volume of 12.5 μl containing 1.5 μl of compound or equivalent amount of DMSO as control, 1 μl (6.25 ng) of N-terminal 6His-tagged recombinant human LIMK2 fragment 1-638 (Carna Biosciences #09-106, in 20 mM MOPS pH=7.0, 1 mM EDTA, 0.01% NP-40, 5% glycerol, 0.1% 2-mercaptoethanol, 1 mg·mL^−1 Bovine Serum Albumin) and a mixture containing 8 mM MOPS pH=7.0, 200 μM EDTA, 110 μM of recombinant GST-cofilin 1, 10 mM MgCl2, and 360 μM ATP. Assays were performed at 30° C. for 10 min before termination by the addition of 40 μl of Laemmli buffer. Samples are then diluted into 1500 μL H2O and 100 μL are then diluted with 200 μL TBS. 5 μL are then spotted on a PVDF membrane (Merck-Millipore Immobilon P IPVH00010). After 20 min incubation RT, membrane was blocked with TBS, 0.1% Tween 20 and 5% BSA for 1 h RT under agitation. The membrane was rinsed 3 times 10 min RT under agitation with TBS, 0.1% Tween-20 (TBST) and then 1 h RT with anti-phospho-Ser3-cofilin (Cell Signaling Technology #3313, 1/1000 dilution) antibody diluted in TBS, 0.1% Tween 20 and 1% BSA. The membrane is then rinsed 3 times 10 min RT under agitation in TBST and incubated for 1 hour with anti-rabbit secondary antibody, horseradish peroxidase conjugated (Jackson Immunoresearch #711-036-152) under agitation at room temperature. […] IC50 LIMK2 is then determined.

For assay [2], the system named is P-MEK/Total MEK. The assay is described as follows: Western blot MEK1 phosphorylation, THP-1. Type of assay: cell-based. Conditions: for IC50: Homo sapiens, read-out: IC50 P-MEK/Total MEK. As for the experimental part: Cells were maintained at 37° C. with 5% CO2.
(§2) In a 6 wells plate (Falcon 353046), 2·10^6 cells in 1.5 mL medium are treated for 2 h with compounds. Cells are then collected and cell lysis is performed at 4° C. using RIPA buffer supplemented with protease inhibitors cocktail (Sigma-Aldrich P8340) and phosphatase inhibitors cocktail (Sigma-Aldrich P5726). Following centrifugation 30 min 15000 g 4° C., supernatants are mixed with Laemmli buffer and denaturation is performed by heating 5 min 95° C. 10 μL of samples are subjected to electrophoresis on 15% SDS-PAGE. After electro-transfer (Mini Transblot, Bio-Rad), the PVDF membrane (Merck-Millipore Immobilon P IPVH00010) is blocked with Tris Buffered Saline, pH 7.4 (TBS) with 0.1% Tween 20 and 5% BSA for 1 h at room temperature under agitation. The membrane was rinsed 3 times 10 min at room temperature under agitation with TBS, 0.1% Tween-20 (TBST) and then 1 h at room temperature with anti-phospho-Ser218/222-MEK1 (Merck-Millipore 07-461, 1/1000 dilution) antibody or anti-MEK1 (Merck-Millipore 07-641, 1/1000 dilution) diluted in TBS, 0.1% Tween 20 and 1% BSA. The membrane is then rinsed 3 times 10 min RT under agitation in TBST and incubated for 1 h with anti-rabbit secondary antibody, horseradish peroxidase conjugated (Jackson Immunoresearch #711-036-152) under agitation at room temperature. After three washes 10 min at room temperature in TBST, the detection of total or phosphorylated cofilin was performed using chemiluminescence kit ECL™ Plus (GE Healthcare RPN2132). For each concentration of compound, ratio between phosphorylated cofilin and total cofilin is determined. This ratio is then expressed as percentage of control ratio (i.e., ratio from DMSO treated cells). IC50 P-MEK/Total MEK is then determined.
(§3) Selectivity ratios are calculated by dividing the IC50 P-MEK/Total MEK value (μM) by the IC50 Phospho-Ser3-Cofilin/Total Cofilin value (μM).
A general note: A western blot detects proteins with antibodies after separation by electrophoresis.

Assay [3] has as its system P-MEK/Total MEK. The assay is described as follows: Western blot MEK1 phosphorylation, HL-60. The assay is classed as cell-based. Conditions: HL-60 cells; for Selectivity ratio: IC50 P-MEK/Total MEK divided by IC50 Phospho-Ser3-Cofilin/Total Cofilin; for IC50: 2 h, read-out: IC50 P-MEK/Total MEK. The procedure:
HL-60 cell line was originally purchased from the Leibniz-Institut Deutsche Sammlung von Mikroorganismen und Zellkulturen GmbH (DSMZ). HL-60 cells are cultured in RPMI 1640 10% (v/v) FBS supplemented with 100 U/mL^−1 penicillin, 0.1 mg·mL^−1 streptomycin (PAN Biotech P06-07100). Cells were maintained at 37° C. with 5% CO2.
as §2, §3

The subject of assay [4] is P-MEK/Total MEK. The assay is described as follows: Western blot MEK1 phosphorylation, MOLM-13. The assay is classed as cell-based. Conditions: for IC50: Homo sapiens, read-out: IC50 P-MEK/Total MEK. As for the experimental part:
MOLM-13 cell line was originally purchased from the Leibniz-Institut Deutsche Sammlung von Mikroorganismen und Zellkulturen GmbH (DSMZ). MOLM-13 cells are cultured in RPMI 1640 20% (v/v) FBS supplemented with 100 U/mL^−1 penicillin, 0.1 mg·mL^−1 streptomycin (PAN Biotech P06-07100). Cells were maintained at 37° C. with 5% CO2.
as §2, §3

T7 sequence (Q13557 whole entry): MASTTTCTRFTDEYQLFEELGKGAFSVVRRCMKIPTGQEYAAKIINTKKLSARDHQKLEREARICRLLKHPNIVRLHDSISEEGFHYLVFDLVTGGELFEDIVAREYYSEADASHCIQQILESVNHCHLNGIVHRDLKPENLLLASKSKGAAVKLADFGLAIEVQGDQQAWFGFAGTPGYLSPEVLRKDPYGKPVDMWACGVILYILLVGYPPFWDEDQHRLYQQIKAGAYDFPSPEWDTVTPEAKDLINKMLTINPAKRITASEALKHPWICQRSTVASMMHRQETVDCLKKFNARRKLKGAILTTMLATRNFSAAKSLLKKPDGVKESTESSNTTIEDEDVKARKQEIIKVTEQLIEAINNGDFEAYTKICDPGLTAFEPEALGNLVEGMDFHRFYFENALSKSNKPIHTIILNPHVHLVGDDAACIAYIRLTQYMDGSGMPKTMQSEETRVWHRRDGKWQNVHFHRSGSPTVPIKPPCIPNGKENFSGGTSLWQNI
T9 sequence (Q16620 32-822): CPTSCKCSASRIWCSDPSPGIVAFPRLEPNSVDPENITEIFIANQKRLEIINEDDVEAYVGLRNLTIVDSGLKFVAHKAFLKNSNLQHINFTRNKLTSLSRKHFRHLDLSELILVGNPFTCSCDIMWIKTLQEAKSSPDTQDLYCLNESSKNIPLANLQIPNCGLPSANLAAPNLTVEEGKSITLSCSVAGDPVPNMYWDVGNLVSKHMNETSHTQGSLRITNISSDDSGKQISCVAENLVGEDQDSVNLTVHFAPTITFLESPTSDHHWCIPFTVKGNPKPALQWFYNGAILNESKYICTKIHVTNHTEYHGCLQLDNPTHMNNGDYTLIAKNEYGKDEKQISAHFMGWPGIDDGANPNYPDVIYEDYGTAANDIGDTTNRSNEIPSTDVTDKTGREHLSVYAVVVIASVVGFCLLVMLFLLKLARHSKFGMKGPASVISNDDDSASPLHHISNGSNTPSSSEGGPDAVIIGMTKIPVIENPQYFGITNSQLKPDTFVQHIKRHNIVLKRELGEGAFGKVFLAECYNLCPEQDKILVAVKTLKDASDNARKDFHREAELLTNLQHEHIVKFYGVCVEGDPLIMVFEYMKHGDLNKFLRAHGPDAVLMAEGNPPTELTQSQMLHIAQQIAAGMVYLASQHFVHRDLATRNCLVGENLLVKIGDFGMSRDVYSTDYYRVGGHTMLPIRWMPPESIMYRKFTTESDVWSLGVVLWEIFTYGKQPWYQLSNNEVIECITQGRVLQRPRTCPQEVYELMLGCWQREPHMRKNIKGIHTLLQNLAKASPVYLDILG
Chain of LIMK1(h) (P53667 whole entry): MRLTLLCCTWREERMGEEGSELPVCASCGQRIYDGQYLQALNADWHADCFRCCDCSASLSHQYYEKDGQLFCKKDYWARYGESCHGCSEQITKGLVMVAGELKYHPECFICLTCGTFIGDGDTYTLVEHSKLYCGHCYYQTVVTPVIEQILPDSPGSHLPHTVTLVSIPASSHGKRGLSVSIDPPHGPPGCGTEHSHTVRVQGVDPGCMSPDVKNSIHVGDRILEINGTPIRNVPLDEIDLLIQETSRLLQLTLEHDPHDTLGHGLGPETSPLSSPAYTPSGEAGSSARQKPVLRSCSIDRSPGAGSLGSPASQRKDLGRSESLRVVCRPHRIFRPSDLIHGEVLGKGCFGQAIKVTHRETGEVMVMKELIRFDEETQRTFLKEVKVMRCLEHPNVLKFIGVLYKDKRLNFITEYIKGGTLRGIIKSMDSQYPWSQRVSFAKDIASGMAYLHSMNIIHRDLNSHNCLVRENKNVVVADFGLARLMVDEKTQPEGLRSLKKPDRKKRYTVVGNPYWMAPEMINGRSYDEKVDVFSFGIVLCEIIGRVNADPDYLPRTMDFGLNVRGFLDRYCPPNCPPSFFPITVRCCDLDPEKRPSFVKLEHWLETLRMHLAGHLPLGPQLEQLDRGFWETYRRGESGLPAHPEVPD
T4 sequence (Q5VT25 whole entry): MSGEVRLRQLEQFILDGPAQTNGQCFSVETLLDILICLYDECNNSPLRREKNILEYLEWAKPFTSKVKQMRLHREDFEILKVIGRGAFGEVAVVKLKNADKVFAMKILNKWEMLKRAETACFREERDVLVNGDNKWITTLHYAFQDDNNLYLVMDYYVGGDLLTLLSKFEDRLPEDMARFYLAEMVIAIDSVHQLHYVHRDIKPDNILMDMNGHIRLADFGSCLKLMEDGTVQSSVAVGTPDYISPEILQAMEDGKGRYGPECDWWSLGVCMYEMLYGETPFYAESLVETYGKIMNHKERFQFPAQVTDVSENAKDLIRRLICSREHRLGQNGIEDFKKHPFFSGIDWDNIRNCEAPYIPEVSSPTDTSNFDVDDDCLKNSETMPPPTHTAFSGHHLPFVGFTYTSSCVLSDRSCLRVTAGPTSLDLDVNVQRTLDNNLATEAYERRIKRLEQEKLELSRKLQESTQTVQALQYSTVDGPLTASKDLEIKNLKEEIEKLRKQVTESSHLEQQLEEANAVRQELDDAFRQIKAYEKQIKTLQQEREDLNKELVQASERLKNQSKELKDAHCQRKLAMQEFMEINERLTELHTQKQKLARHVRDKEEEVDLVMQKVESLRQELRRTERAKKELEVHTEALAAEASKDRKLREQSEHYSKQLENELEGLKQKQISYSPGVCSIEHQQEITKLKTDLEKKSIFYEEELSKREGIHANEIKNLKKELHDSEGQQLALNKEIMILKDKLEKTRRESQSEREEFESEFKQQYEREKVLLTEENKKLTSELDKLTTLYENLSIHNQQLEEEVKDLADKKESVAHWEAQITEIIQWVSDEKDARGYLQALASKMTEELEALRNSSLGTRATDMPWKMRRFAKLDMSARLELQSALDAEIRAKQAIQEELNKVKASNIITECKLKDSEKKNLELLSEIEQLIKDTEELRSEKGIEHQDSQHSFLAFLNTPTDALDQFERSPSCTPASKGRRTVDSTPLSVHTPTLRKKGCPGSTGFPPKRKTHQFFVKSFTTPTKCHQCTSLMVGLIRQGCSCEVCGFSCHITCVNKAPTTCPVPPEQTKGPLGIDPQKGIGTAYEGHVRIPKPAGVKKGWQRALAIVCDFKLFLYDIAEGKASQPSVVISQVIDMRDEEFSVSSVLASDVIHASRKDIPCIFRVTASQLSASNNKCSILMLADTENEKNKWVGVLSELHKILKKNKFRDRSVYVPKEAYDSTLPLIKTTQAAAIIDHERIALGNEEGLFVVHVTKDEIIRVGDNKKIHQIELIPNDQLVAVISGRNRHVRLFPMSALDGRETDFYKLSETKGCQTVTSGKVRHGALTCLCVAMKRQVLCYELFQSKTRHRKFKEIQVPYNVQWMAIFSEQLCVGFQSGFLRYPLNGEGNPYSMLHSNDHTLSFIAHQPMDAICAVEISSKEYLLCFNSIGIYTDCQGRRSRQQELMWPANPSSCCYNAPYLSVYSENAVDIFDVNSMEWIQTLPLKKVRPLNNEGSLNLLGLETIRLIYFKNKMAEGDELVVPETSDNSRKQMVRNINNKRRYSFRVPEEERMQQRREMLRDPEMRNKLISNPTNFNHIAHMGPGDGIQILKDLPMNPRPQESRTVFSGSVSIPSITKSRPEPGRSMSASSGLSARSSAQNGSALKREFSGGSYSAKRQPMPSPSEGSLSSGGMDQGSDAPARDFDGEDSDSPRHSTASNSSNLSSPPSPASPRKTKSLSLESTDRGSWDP
T13 sequence (P15056 416-766 V600E limits assumed): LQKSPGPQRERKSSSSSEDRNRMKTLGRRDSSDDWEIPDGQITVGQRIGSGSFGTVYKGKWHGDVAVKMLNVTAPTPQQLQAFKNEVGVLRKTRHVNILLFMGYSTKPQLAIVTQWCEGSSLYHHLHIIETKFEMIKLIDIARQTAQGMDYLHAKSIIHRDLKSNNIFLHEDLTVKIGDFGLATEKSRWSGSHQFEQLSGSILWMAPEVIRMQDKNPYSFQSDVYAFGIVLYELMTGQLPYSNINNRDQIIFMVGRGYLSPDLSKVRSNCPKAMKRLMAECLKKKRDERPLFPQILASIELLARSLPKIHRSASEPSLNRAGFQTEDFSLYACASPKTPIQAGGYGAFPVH
T10 sequence (Q96GD4 whole entry): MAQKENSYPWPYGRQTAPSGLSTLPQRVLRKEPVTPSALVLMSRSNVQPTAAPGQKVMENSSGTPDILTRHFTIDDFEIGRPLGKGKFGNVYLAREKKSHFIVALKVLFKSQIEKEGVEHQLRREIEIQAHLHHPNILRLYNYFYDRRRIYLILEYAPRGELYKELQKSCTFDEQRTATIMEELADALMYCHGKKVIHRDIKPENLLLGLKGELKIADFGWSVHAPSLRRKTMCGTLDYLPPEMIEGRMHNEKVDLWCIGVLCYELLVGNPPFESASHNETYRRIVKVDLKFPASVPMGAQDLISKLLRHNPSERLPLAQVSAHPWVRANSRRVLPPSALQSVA

For the molecule `CC(C)(C)c1nc(-c2cccc(NS(=O)(=O)c3c(F)cccc3F)c2F)c(-c2ccnc(Nc3ccccc3)n2)s1` [Compound 1, N-(3-(2-(tert-butyl)-5-(2-(phenylamino)pyrimidin-4-yl)thiazol-4-yl)-2-fluorophenyl)-2,6-difluorobenzenesulfonamide], the activity at 5 µM was at least 50% at MKK4(m); 10 to 50% on cKit(V560G)(h); under 3% on LIMK1(h); at least 50% on A-Raf(h); at least 50% at MRCKα(h); at least 50% at PKCα(h). Further, the activity at 5 µM is at least 50% on LKB1(h); at least 50% at CaMKIIδ(h); at least 50% on IGF-1R(h), activated; at least 50% on TrkB(h); 10 to 50% at Aurora-B(h); at least 50% on Flt3(D835Y)(h). Also, the activity at 5 µM is at least 50% at IKKα(h), 3 to 10% on B-Raf(V599E)(h) and at least 50% on FAK(h). The “% activity” value with MLCK(h) is reported as “− (50%≤residual activity)”. Further, in assay [1], the IC50 is 100 to 500 nM.
For `O=S(=O)(Nc1cccc(-c2nc(CCO)sc2-c2ccnc(Nc3ccccc3)n2)c1F)c1c(F)cccc1F` [Compound 8, 2,6-difluoro-N-(2-fluoro-3-(2-(2-hydroxyethyl)-5-(2-(phenylamino)pyrimidin-4-yl)thiazol-4-yl)phenyl)benzenesulfonamide], the IC50 was 200 to 1000 nM in the assay with P-MEK/Total MEK [2] (THP-1 cells, 2 h) and over 1000 nM with P-MEK/Total MEK [3] (Homo sapiens). The Selectivity ratio is 80 in the assay on P-MEK/Total MEK [2] (THP-1 cells, IC50 P-MEK/Total MEK divided by IC50 Phospho-Ser3-Cofilin/Total Cofilin) and 31 in the assay on P-MEK/Total MEK [3].
Consider `O=S(=O)(Nc1cccc(-c2nc(CCO)sc2-c2ccnc(Nc3ccccc3)n2)c1F)c1c(F)cccc1F` [8 (Na)], for which the IC50 with P-MEK/Total MEK [3] is over 1000 nM; in the assay with P-MEK/Total MEK [4] (MOLM-13 cells, 2 h), over 1000 nM. In addition, the Selectivity ratio with P-MEK/Total MEK [3] amounted to 42; in the assay on P-MEK/Total MEK [4] (MOLM-13 cells, IC50 P-MEK/Total MEK divided by IC50 Phospho-Ser3-Cofilin/Total Cofilin), 42.
On to `CNC(=O)Cc1nc(-c2cccc(NS(=O)(=O)c3c(F)cccc3F)c2F)c(-c2ccnc(Nc3ccccc3)n2)s1` [Compound 9, 2-(4-(3-(2,6-difluorophenylsulfonamido)-2-fluorophenyl)-5-(2-(phenylamino)pyrimidin-4-yl)thiazol-2-yl)-N-methylacetamide], for which the IC50 is 200 to 1000 nM in the assay with P-MEK/Total MEK [2] (THP-1, 2 h) and over 1000 nM in the assay with P-MEK/Total MEK [4] (MOLM-13, 2 h).

Values taken from US20190263796A1, “LIM KINASE INHIBITORS, PHARMACEUTICAL COMPOSITION AND METHOD OF USE IN LIMK-MEDIATED DISEASES” (CELLIPSE, priority 2016, published 2019).
